# Columns and labels:
# Type in all cases: cell-based
# [1] = system: NT-1 tobacco cells transformed with pDAB3778 (DSM-2); assay: Tobacco cell culture transformation, selection frequency; conditions: second experiment
# Method: Four days prior to transformation, a 1 week old NT-1 tobacco suspension, which was being subcultured every 7 days, was subcultured to fresh medium by adding 2 ml of the NT-1 culture or 1 ml of packed cells into 40 ml NT-1 B media. The subcultured suspension was maintained in the dark at 25±1° C. on a shaker at 125 rpm.
# A 50% glycerol stock of Agrobacterium tumefaciens [strain LBA4404] harboring a binary vector of interest was used to initiate a liquid overnight culture by adding 20, 100, or […] to 30 ml YEP liquid (10 g/L yeast extract, 10 g/L Peptone, 5 g/L NaCl, 0-10 g/L Sucrose) containing 50-100 mg/L spectinomycin. The bacterial culture was incubated in the dark at 28° C. in an incubator shaker at 150-250 rpm until the OD600 was 1.5±0.2. This took approximately 18-20 hrs.
# For each vector tested, 20-70 mL of 4-day old suspension cells were transferred into a sterile vessel, to which 500-1750 μl of Agrobacterium suspension at the proper OD was added. To ensure a uniform mixture was achieved, the cells were pipetted up and down 5 times with a 10 ml wide-bore pipet. The uniform suspension was then drawn up into a 25 ml barrel of a repeat pipetter and 250 μl of the suspension was dispensed per well into 24-well plates, continuing until the suspension was exhausted. The well plates were wrapped in parafilm and cultured in the dark at 25±1° C. without shaking for a 3 day co-cultivation.
# Following the co-cultivation, all excess liquid was removed from the individual wells with a 1 mL pipet tip, and remaining cells were resuspended in 1 ml NTC liquid (NT-1 B medium containing 500 mg/L carbenicillin, added after autoclaving). The contents of an individual well were dispersed across the entire surface of 100×25 mm selection plates using disposable transfer pipets. Selection media consisted of NTC media solidified with 8 g/l TC agar supplemented with 7.5 to 15 mg/L bialaphos or technical grade glufosinate ammonium, added after autoclaving. All selection plates, left unwrapped, were maintained in the dark at 28° C.
# Putative transformants appeared as small clusters of callus on a background of dead, non-transformed cells. Calli were isolated approximately 2-6 weeks post-transformation. Each callus isolate was transferred to its own 60×20 mm plate containing the same selection medium and allowed to grow for approximately 2 weeks before being submitted for analysis.
# A side-by-side experiment comparing DSM-2 (v2) with PAT was completed. In the study, 100% of the PAT selection plates produced at least one PCR positive isolate on 10 mg/L bialaphos media, whereas 79% of the DSM-2 (v2) selection plates produced at least one PCR positive isolate.
# In a second experiment, DSM-2 (v2)-treated tobacco cells were selected upon 7.5, 10, 12.5, or 15 mg/L bialaphos or technical grade glufosinate ammonium. Transformation frequencies (% of selection plates producing at least one callus) following verification by coding region PCR are listed in the table below.
# [2] = system: Escherichia coli BL21—Star (DE3) expressing DSM-2 (v2) (pDAB4412); assay: Complementation of cell growth on glufosinate, pET expression
# Source text: A pET28a(+) expression plasmid containing PAT (v3) was constructed as a positive control. PAT (v3) was cloned as an NcoI-SacI fragment into corresponding restriction sites of pDAB779. Positive clones containing the PAT (v3) gene fragment were verified via restriction enzyme digestion. This construct was labeled as pDAB4434.
# The plasmids, pDAB4434, pDAB4412, and an empty pET vector (control) were transformed into Escherichia coli BL21—Star (DE3) bacterial cells. Expression cultures were initiated with 10-200 freshly transformed colonies into 250 mL LB medium containing 50 μg/ml antibiotic and 75 μM IPTG (isopropyl-[…]). The cultures were grown at 28° C. for 24 hours at 180-200 rpm. Five microliters of the culture was inoculated onto a complex media control and minimal media containing incrementally increasing concentrations of glufosinate and 20 μM IPTG. The cultures were dispersed evenly over the plates and incubated at 28° C. for 24 hours.
# [3] = system: Escherichia coli BL21—Star (DE3); assay: Bacterial growth on minimal media containing glufosinate (BASTA); conditions: only strain of five tested
# Method: Selected cell lines of Escherichia coli and Agrobacterium tumefaciens were inoculated on minimal media containing incrementally increasing concentrations of Glufosinate (BASTA). The cell lines; BL21—Star (DE3), Top10, DH5═, Agrobacterium tumefaciens C58, and Agrobacterium tumefaciens LBA4404s were initially grown up on complex media. The Escherichia coli strains were grown in LB and the Agrobacterium tumefaciens strains were grown in YEP. Five microliters of bacterial culture was inoculated and dispersed evenly onto minimal media plates containing various concentrations of glufosinate. The concentrations consisted of 0 μg/ml, 250 μg/ml, 500 μg/ml, 1000 μg/ml, 2000 μg/ml, and 4000 μg/ml of BASTA. In addition, the bacterial strains were inoculated onto a plate of complex media as a control—Agrobacterium tumefaciens strains were inoculated on YEP agar plates, and Escherichia coli strains were inoculated on LB agar plates. The plates containing the Escherichia coli strains were incubated at 37° C. for 24 hours. The plates containing the Agrobacterium tumefaciens strains were incubate at 25° C. for 48 hours. […] Table 7 illustrates the capability of the various strains to grow on minimal media containing glufosinate.
# [4] = system: Escherichia coli BL21—Star (DE3) with 3264 (CsVMV promoter//DSM-2); assay: Complementation on glufosinate with plant/viral promoters; conditions: DSM-2 driven by CsVMV promoter
# Method: (§1) Plasmid constructs in which the DSM-2 (v2) and PAT gene coding sequences were expressed, under either the viral promoters CsVMV or the plant promoter AtUbi10, were assayed for complementation on minimal media containing glufosinate. The plasmids 3778 (Rb7 MARv3//AtUbi10 promoter//DSM-2 (v2)//Atu Orf 1 3′UTR), 3779 (Rb7 MARv3//AtUbi10 promoter//PAT//Atu Orf 1 3′UTR), 3264 (CsVMV promoter//DSM-2//Atu Orf24 3′UTR), 3037 (CsVMV promoter//PAT//Atu Orf 25/26 3′UTR), and 770 (control plasmid containing CsVMV promoter//GUS v3//Atu Orf 24 3′UTR) were transformed into Escherichia coli BL21—Star (DE3) and grown up in complex media. Five microliters of the cultures were plated on minimal media containing increasing concentrations of Glufosinate and incubated at 37° C. for 48 hours.
# [5] = system: Escherichia coli BL21—Star (DE3) with 3778 (AtUbi10 promoter//DSM-2 (v2)); assay: as above; conditions: DSM-2 driven by At Ubi10 promoter
# Method: as §1
Compound,Transformation frequencies (% of selection plates producing at least one callus) following verification by coding region PCR ([1]; 7.5 mg/L in selection medium),Transformation frequencies (% of selection plates producing at least one callus) following verification by coding region PCR ([1]; 10 mg/L in selection medium),Transformation frequencies (% of selection plates producing at least one callus) following verification by coding region PCR ([1]; 12.5 mg/L in selection medium),Transformation frequencies (% of selection plates producing at least one callus) following verification by coding region PCR ([1]; 15 mg/L in selection medium),glufosinate concentration on minimal media to which DSM-2 expression complemented resistance [2],inhibition of growth on minimal media [3],glufosinate concentration in minimal media to which resistance was provided [4],glufosinate concentration in minimal media to which resistance was provided [5]
CP(=O)(O)CCC(N)C(=O)O (stereo not drawn) [glufosinate],55.6%,50.0%,44.4%,38.9%,400 µg/mL,substantially inhibited,200 µg/mL,200 µg/mL
C[C@H](NC(=O)[C@H](C)NC(=O)[C@@H](N)CCP(C)(=O)O)C(=O)O [Bialaphos],38.9%,44.4%,38.9%,22.2%,,,,
